Values after ≈ are worked out from the molar mass of the structure shown.
Assays:
Assay in all cases: In vitro antibacterial evaluation: minimum inhibitory concentration (MIC), broth dilution method
Format in all cases: cell-based
Escherichia coli = settings: for MIC Escherichia coli (ATCC 25922): strain ATCC 25922; for MIC Escherichia coli (GC 4559): strain GC 4559; for MIC Escherichi coli (GC 4560): strain GC 4560
Method in brief: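 An MIC is reported for each organism as the least concentration giving inhibition, using broth dilution over 64-0.06 μg/mL with a 5×10^5 CFU/mL inoculum.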

Staphylococcus sp. = settings: broth dilution, 18 hours at 35° C.
Method in brief: (§1)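 Test strains, among them recent clinical isolates carrying methicillin, penicillin and/or vancomycin resistance, were inoculated at 5×10^5 CFU/mL. A broth dilution series spanning 64-0.06 μg/mL in Muller-Hinton II […] (NCCLS M7-A2) defined the MIC as the lowest growth-inhibiting concentration.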

Streptococcus sp. = test system: Streptococcus sp.
Method in brief: as §1

Enterococcus sp. = test system: Enterococcus sp.
Method in brief: as §1

[1] = broth dilution, inoculum 5×10^5 CFU/mL, 18 hours at 35° C.

## CC(c1ccccc1)C1NC(=O)CNC(=O)C(CO)NC(=O)C(C(O)C2CNC(=N)N2C2OC(CO)C(O)C(O)C2O)NC(=O)C(C(O)C2CNC(=N)N2)NC(=O)C(Cc2ccc(OC3OC(CO)C(OC4OC5COC(c6cccc(Oc7ccccc7)c6)OC5C(O)C4O)C(O)C3O)cc2)NC1=O (stereo not drawn) [Example 170, Cyclo[glycyl-β-methylphenylalanyl-O-[4-O-[4,6-O-(3-phenoxybenzylidene)hexopyranosyl]-hexopyranosyl]tyrosyl-3-(2-iminoimidazoliclin-4-yl)seryl-3-(3-hexopyranosyl-2-iminoimidazolidin-4-yl)serylseryl]]
Escherichia coli
  MIC Escherichia coli (ATCC 25922): >64 µg/mL
  MIC Escherichia coli (GC 4559): >64 µg/mL
  MIC Escherichi coli (GC 4560): 4 µg/mL (≈ 2.71 µM)
Staphylococcus sp.; 5×10^5 CFU/mL
  MIC Coagulase Negative Staphylococcus (GC 4547): 4 µg/mL (≈ 2.71 µM)
  MIC Coagulase Negative Staphylococcus (GC 4548): 1 µg/mL (≈ 0.678 µM)
  MIC Coagulase Negative Staphylococcus (GC 4549): 2 µg/mL (≈ 1.36 µM)
  MIC Coagulase Negative Staphylococcus (GC 4551): 1 µg/mL (≈ 0.678 µM)
  MIC Coagulase Negative Staphylococcus (GC 6257): 1 µg/mL (≈ 0.678 µM)
  MIC Staphylococcus aureus (ATCC 29213): 4 µg/mL (≈ 2.71 µM)
  MIC Staphylococcus aureus (GC 1131): 4 µg/mL (≈ 2.71 µM)
  MIC Staphylococcus aureus (GC 3051): 4 µg/mL (≈ 2.71 µM)
  MIC Staphylococcus aureus (GC 3053): 1 µg/mL (≈ 0.678 µM)
  MIC Staphylococcus aureus (GC 4541): 2 µg/mL (≈ 1.36 µM)
  MIC Staphylococcus aureus (GC 4542): 4 µg/mL (≈ 2.71 µM)
  MIC Staphylococcus aureus (GC 4544): 2 µg/mL (≈ 1.36 µM)
  MIC Staphylococcus aureus (GC 4545): 4 µg/mL (≈ 2.71 µM)
  MIC Staphylococcus aureus-SMITH (GC 4543): 4 µg/mL (≈ 2.71 µM)
  MIC Staphylococcus haemolyticus (GC 4546): 8 µg/mL (≈ 5.42 µM)
Staphylococcus sp.; strain ATCC 29213
  MIC Staphylococcus aureus (ATCC 29213): 4 µg/mL (≈ 2.71 µM)
Staphylococcus sp.; strain GC 1131
  MIC Staphylococcus aureus (GC 1131): 4 µg/mL (≈ 2.71 µM)
Staphylococcus sp.; strain GC 3051
  MIC Staphylococcus aureus (GC 3051): 4 µg/mL (≈ 2.71 µM)
Staphylococcus sp.; strain GC 3053
  MIC Staphylococcus aureus (GC 3053): 1 µg/mL (≈ 0.678 µM)
Staphylococcus sp.; strain GC 4541
  MIC Staphylococcus aureus (GC 4541): 2 µg/mL (≈ 1.36 µM)
Staphylococcus sp.; strain GC 4542
  MIC Staphylococcus aureus (GC 4542): 4 µg/mL (≈ 2.71 µM)
Staphylococcus sp.; strain GC 4544
  MIC Staphylococcus aureus (GC 4544): 2 µg/mL (≈ 1.36 µM)
Staphylococcus sp.; strain GC 4545
  MIC Staphylococcus aureus (GC 4545): 4 µg/mL (≈ 2.71 µM)
Streptococcus sp.; [1]
  MIC Streptococcus agalactiae (GC 4564): <0.06 µg/mL
  MIC Streptococcus pneumoniae (ATCC 6301): <0.06 µg/mL
  MIC Streptococcus pneumoniae (GC 1894): <0.06 µg/mL
  MIC Streptococcus pneumoniae (GC 4565): <0.06 µg/mL
  MIC Streptococcus pyogenes (GC 4563): <0.06 µg/mL
Streptococcus sp.; strain ATCC 6301
  MIC Streptococcus pneumoniae (ATCC 6301): <0.06 µg/mL
Streptococcus sp.; strain GC 1894
  MIC Streptococcus pneumoniae (GC 1894): <0.06 µg/mL
Streptococcus sp.; strain GC 4563
  MIC Streptococcus pyogenes (GC 4563): <0.06 µg/mL
Streptococcus sp.; strain GC 4564
  MIC Streptococcus agalactiae (GC 4564): <0.06 µg/mL
Streptococcus sp.; strain GC 4565
  MIC Streptococcus pneumoniae (GC 4565): <0.06 µg/mL
Enterococcus sp.; [1]
  MIC Enterococcus avium (GC 4558): 4 µg/mL (≈ 2.71 µM)
  MIC Enterococcus faecalis (ATCC 29212): 4 µg/mL (≈ 2.71 µM)
  MIC Enterococcus faecalis (GC 2242): 4 µg/mL (≈ 2.71 µM)
  MIC Enterococcus faecalis (GC 2691): 4 µg/mL (≈ 2.71 µM)
  MIC Enterococcus faecalis (GC 3059): 4 µg/mL (≈ 2.71 µM)
  MIC Enterococcus faecalis (GC 4552): 4 µg/mL (≈ 2.71 µM)
  MIC Enterococcus faecalis (GC 4553): 4 µg/mL (≈ 2.71 µM)
  MIC Enterococcus faecalis (GC 4554): 2 µg/mL (≈ 1.36 µM)
  MIC Enterococcus faecalis (GC 6189): 4 µg/mL (≈ 2.71 µM)
  MIC Enterococcus faecium (GC 2243): 4 µg/mL (≈ 2.71 µM)
  MIC Enterococcus faecium (GC 4556): 4 µg/mL (≈ 2.71 µM)
  MIC Enterococcus faecium (GC 4557): 4 µg/mL (≈ 2.71 µM)
Enterococcus sp.; strain ATCC 29212
  MIC Enterococcus faecalis (ATCC 29212): 4 µg/mL (≈ 2.71 µM)
Enterococcus sp.; strain GC 2242
  MIC Enterococcus faecalis (GC 2242): 4 µg/mL (≈ 2.71 µM)
Enterococcus sp.; strain GC 2243
  MIC Enterococcus faecium (GC 2243): 4 µg/mL (≈ 2.71 µM)
Enterococcus sp.; strain GC 2691
  MIC Enterococcus faecalis (GC 2691): 4 µg/mL (≈ 2.71 µM)
Enterococcus sp.; strain GC 3059
  MIC Enterococcus faecalis (GC 3059): 4 µg/mL (≈ 2.71 µM)
Enterococcus sp.; strain GC 4552
  MIC Enterococcus faecalis (GC 4552): 4 µg/mL (≈ 2.71 µM)
Enterococcus sp.; strain GC 4553
  MIC Enterococcus faecalis (GC 4553): 4 µg/mL (≈ 2.71 µM)
Enterococcus sp.; strain GC 4554
  MIC Enterococcus faecalis (GC 4554): 2 µg/mL (≈ 1.36 µM)
Enterococcus sp.; strain GC 4556
  MIC Enterococcus faecium (GC 4556): 4 µg/mL (≈ 2.71 µM)
Enterococcus sp.; strain GC 4557
  MIC Enterococcus faecium (GC 4557): 4 µg/mL (≈ 2.71 µM)
Enterococcus sp.; strain GC 4558
  MIC Enterococcus avium (GC 4558): 4 µg/mL (≈ 2.71 µM)
Enterococcus sp.; strain GC 6189
  MIC Enterococcus faecalis (GC 6189): 4 µg/mL (≈ 2.71 µM)

## CC(c1ccccc1)C1NC(=O)CNC(=O)C(CO)NC(=O)C(C(O)C2CNC(=N)N2C2OC(CO)C(O)C(O)C2O)NC(=O)C(C(O)C2CNC(=N)N2)NC(=O)C(Cc2ccc(OC3OC(CO)C(OC4OC5COC(c6ccc(C=Cc7ccccc7)cc6)OC5C(O)C4O)C(O)C3O)cc2)NC1=O (stereo not drawn) [Example 172]
Escherichia coli
  MIC Escherichia coli (ATCC 25922): >64 µg/mL
  MIC Escherichia coli (GC 4559): >64 µg/mL
  MIC Escherichi coli (GC 4560): 2 µg/mL (≈ 1.35 µM)
Staphylococcus sp.; 5×10^5 CFU/mL
  MIC Coagulase Negative Staphylococcus (GC 4547): 8 µg/mL (≈ 5.39 µM)
  MIC Coagulase Negative Staphylococcus (GC 4548): 2 µg/mL (≈ 1.35 µM)
  MIC Coagulase Negative Staphylococcus (GC 4549): 2 µg/mL (≈ 1.35 µM)
  MIC Coagulase Negative Staphylococcus (GC 4551): 4 µg/mL (≈ 2.69 µM)
  MIC Coagulase Negative Staphylococcus (GC 6257): 2 µg/mL (≈ 1.35 µM)
  MIC Staphylococcus aureus (ATCC 29213): 4 µg/mL (≈ 2.69 µM)
  MIC Staphylococcus aureus (GC 1131): 8 µg/mL (≈ 5.39 µM)
  MIC Staphylococcus aureus (GC 3051): 4 µg/mL (≈ 2.69 µM)
  MIC Staphylococcus aureus (GC 3053): 4 µg/mL (≈ 2.69 µM)
  MIC Staphylococcus aureus (GC 4541): 4 µg/mL (≈ 2.69 µM)
  MIC Staphylococcus aureus (GC 4542): 2 µg/mL (≈ 1.35 µM)
  MIC Staphylococcus aureus (GC 4544): 8 µg/mL (≈ 5.39 µM)
  MIC Staphylococcus aureus (GC 4545): 4 µg/mL (≈ 2.69 µM)
  MIC Staphylococcus aureus-SMITH (GC 4543): 8 µg/mL (≈ 5.39 µM)
  MIC Staphylococcus haemolyticus (GC 4546): 8 µg/mL (≈ 5.39 µM)
Staphylococcus sp.; strain ATCC 29213
  MIC Staphylococcus aureus (ATCC 29213): 4 µg/mL (≈ 2.69 µM)
Staphylococcus sp.; strain GC 1131
  MIC Staphylococcus aureus (GC 1131): 8 µg/mL (≈ 5.39 µM)
Staphylococcus sp.; strain GC 3051
  MIC Staphylococcus aureus (GC 3051): 4 µg/mL (≈ 2.69 µM)
Staphylococcus sp.; strain GC 3053
  MIC Staphylococcus aureus (GC 3053): 4 µg/mL (≈ 2.69 µM)
Staphylococcus sp.; strain GC 4541
  MIC Staphylococcus aureus (GC 4541): 4 µg/mL (≈ 2.69 µM)
Staphylococcus sp.; strain GC 4542
  MIC Staphylococcus aureus (GC 4542): 2 µg/mL (≈ 1.35 µM)
Staphylococcus sp.; strain GC 4544
  MIC Staphylococcus aureus (GC 4544): 8 µg/mL (≈ 5.39 µM)
Staphylococcus sp.; strain GC 4545
  MIC Staphylococcus aureus (GC 4545): 4 µg/mL (≈ 2.69 µM)
Streptococcus sp.; [1]
  MIC Streptococcus agalactiae (GC 4564): <0.06 µg/mL
  MIC Streptococcus pneumoniae (ATCC 6301): <0.06 µg/mL
  MIC Streptococcus pneumoniae (GC 1894): <0.06 µg/mL
  MIC Streptococcus pneumoniae (GC 4565): <0.06 µg/mL
  MIC Streptococcus pyogenes (GC 4563): 0.12 µg/mL (≈ 0.0808 µM)
Streptococcus sp.; strain ATCC 6301
  MIC Streptococcus pneumoniae (ATCC 6301): <0.06 µg/mL
Streptococcus sp.; strain GC 1894
  MIC Streptococcus pneumoniae (GC 1894): <0.06 µg/mL
Streptococcus sp.; strain GC 4563
  MIC Streptococcus pyogenes (GC 4563): 0.12 µg/mL (≈ 0.0808 µM)
Streptococcus sp.; strain GC 4564
  MIC Streptococcus agalactiae (GC 4564): <0.06 µg/mL
Streptococcus sp.; strain GC 4565
  MIC Streptococcus pneumoniae (GC 4565): <0.06 µg/mL
Enterococcus sp.; [1]
  MIC Enterococcus avium (GC 4558): 4 µg/mL (≈ 2.69 µM)
  MIC Enterococcus faecalis (ATCC 29212): 8 µg/mL (≈ 5.39 µM)
  MIC Enterococcus faecalis (GC 2242): 4 µg/mL (≈ 2.69 µM)
  MIC Enterococcus faecalis (GC 2691): 4 µg/mL (≈ 2.69 µM)
  MIC Enterococcus faecalis (GC 3059): 8 µg/mL (≈ 5.39 µM)
  MIC Enterococcus faecalis (GC 4552): 8 µg/mL (≈ 5.39 µM)
  MIC Enterococcus faecalis (GC 4553): 4 µg/mL (≈ 2.69 µM)
  MIC Enterococcus faecalis (GC 4554): 4 µg/mL (≈ 2.69 µM)
  MIC Enterococcus faecalis (GC 6189): 2 µg/mL (≈ 1.35 µM)
  MIC Enterococcus faecium (GC 2243): 8 µg/mL (≈ 5.39 µM)
  MIC Enterococcus faecium (GC 4556): 8 µg/mL (≈ 5.39 µM)
  MIC Enterococcus faecium (GC 4557): 8 µg/mL (≈ 5.39 µM)
Enterococcus sp.; strain ATCC 29212
  MIC Enterococcus faecalis (ATCC 29212): 8 µg/mL (≈ 5.39 µM)
Enterococcus sp.; strain GC 2242
  MIC Enterococcus faecalis (GC 2242): 4 µg/mL (≈ 2.69 µM)
Enterococcus sp.; strain GC 2243
  MIC Enterococcus faecium (GC 2243): 8 µg/mL (≈ 5.39 µM)
Enterococcus sp.; strain GC 2691
  MIC Enterococcus faecalis (GC 2691): 4 µg/mL (≈ 2.69 µM)
Enterococcus sp.; strain GC 3059
  MIC Enterococcus faecalis (GC 3059): 8 µg/mL (≈ 5.39 µM)
Enterococcus sp.; strain GC 4552
  MIC Enterococcus faecalis (GC 4552): 8 µg/mL (≈ 5.39 µM)
Enterococcus sp.; strain GC 4553
  MIC Enterococcus faecalis (GC 4553): 4 µg/mL (≈ 2.69 µM)
Enterococcus sp.; strain GC 4554
  MIC Enterococcus faecalis (GC 4554): 4 µg/mL (≈ 2.69 µM)
Enterococcus sp.; strain GC 4556
  MIC Enterococcus faecium (GC 4556): 8 µg/mL (≈ 5.39 µM)
Enterococcus sp.; strain GC 4557
  MIC Enterococcus faecium (GC 4557): 8 µg/mL (≈ 5.39 µM)
Enterococcus sp.; strain GC 4558
  MIC Enterococcus avium (GC 4558): 4 µg/mL (≈ 2.69 µM)
Enterococcus sp.; strain GC 6189
  MIC Enterococcus faecalis (GC 6189): 2 µg/mL (≈ 1.35 µM)

Reference: patent US8247211B2, “Glycopeptide antibiotics” (American Cyanamid Company, priority 2001, dated 2012)
